Test results published in patent publication US20230146923A1, “COMPOSITIONS AND METHODS FOR INHIBITION AND TARGETING OF P97” (California Institute of Technology, priority 2021, published 2023).
Where a SMILES comes first, the peptide text is derived from it. The star is where a group is joined. Cbz = O=C(OCc1ccccc1)*

Columns and labels:
Assay type in all cases: cell-based
HCT116 cells [1] = assay: qRT-PCR analysis of ATF3, DHFR and CCND1 RNAs; conditions: HCT116, qPCR
Method: (§1) FIGS. 10A-10F depicts p97 inhibition impairs the transcriptional activity of E2F1 by downregulating the CCND1/CDK complex. […] Data was analyzed using the g:Profiler website. Shading indicates the gene is a potential target of transcription factor c-Myb or E2F1. Blank indicates it is not a target gene. FIG. 10B depicts known regulatory network of the CCND1/CDK/RB1/E2F1 pathway. […] HCT116 cells were treated with 1 μM MG132, 2 μM CB-5083 or 4 μM of NMS-874 for 6 h. FIGS. 10E and 10F show transcriptional activity of E2F1 measured using E2F1 reporter assay. HCT116 cells were transfected with pGL2-AN plasmid (Addgene: 20950) for 24 h. Then cells were plated in 384 well plate and incubated for 16 h. The luminescence were detected after 8 h treatment with MG132, CB-5083 or NMS-873. Data are shown as mean±SD, n=3. f, qRT-PCR analysis of ATF3, DHFR and CCND1 RNAs following treatment with MG132, CB-5083 or NMS-874. HCT116 cells were treated for 2, 6 and 24 h using the same concentration as proteomic and western blot assay (n=4).
(§2) To determine if the decreased expression of E2F1 target genes was caused by the downregulation of E2F1 levels due to ER stress, qPCR and western blot were used to evaluate E2F1 levels. […] The transcriptional activity of E2F1 can also be repressed through the formation of a complex with the tumor suppressor protein retinoblastoma (RB1) (FIG. 10B). […]

E2F1 [2] = assay: E2F1 reporter assay; conditions: HCT116 transfected with pGL2-AN plasmid, 8 h treatment, luminescence
Method: as §1, §2

HCT116 cells [3] = assay: Western blot of E2F1 related proteins and phos-4EBP1
Method: FIGS. 9B-9C show network of E2F1 (FIG. 9B) and cMyb (FIG. 9C).
as §1
To investigate whether the protein translation was inhibited by p97 or proteasome inhibitor, the phosphorylation state of eukaryotic translation initiation factor 4E-binding protein 1 (4E-BP1) was examined. Phosphorylation of 4E-BP1 serves to increase total protein translation. […] The effect of p97 inhibition on specific protein levels arises from a change in transcript levels. To examine how transcript levels might be affected, potential transcription factor binding sites (TFBSs) in the promoters of these 33 genes in the TRANSFAC database were examined. […] By examining protein-protein interaction networks related to E2F1 and MYB in the STRING database, 11 E2F1 interactors were found (FIG. 9B) and 11 MYB interactors (FIG. 9C). […] Therefore it was determined to further investigate the role of E2F1, rather than MYB, in cells responding to p97 and proteasome inhibition.
It was hypothesized that CCND1 and CDK4/6 upregulation by MG132 promotes RB1 hyperphosphorylation.

Securin = Securin degradation (CHX chase) in HCT116 cells; conditions: HCT116, 1 μM MG132, 50 μM CHX
Method: The concentration of MG132, CB-5083 and Baf A1 was 1 μM, 2 μM and 10 μM, respectively. […] FIGS. 13D-13E depict the half-life of Securin in HCT116 cells. HCT116 cells were treated with 1 μM of MG132, 2 μM of CB-5083, 1 μM of MG132 plus 2 μM of CB-5083 or DMSO. […] Cells were pretreated with […] for 1 h. […] For FIGS. 13B-13G, D, B, M, C and N represents DMSO, Baf A1, MG132, CB-5083 and NMS-873, respectively. Data are shown as mean±SD. Statistical analysis was performed using one-way ANOVA.

HCT116 cells [4] = assay: TMT labeling proteomics of HCT116 cells treated with MG132, CB-5083 or NMS-873; conditions: for Log2 FC Baculoviral IAP repeat-containing protein 5 (BIRC5) / Log2 FC Cell division cycle protein 20 homolog (CDC20) / Log2 FC F-box only protein 5 (FBXO5) / Log2 FC G1/S-specific cyclin-D1 (CCND1) / Log2 FC Geminin (GMNN) / Log2 FC M-phase inducer phosphatase 2 (CDC25B) / Log2 FC Mitotic checkpoint serine/threonine-protein kinase BUB1 (BUB1) / Log2 FC Myc proto-oncogene protein (MYC) / Log2 FC Origin recognition complex subunit 6 (ORC6) / Log2 FC Ribonucleoside-diphosphate reductase subunit M2 (RRM2) / Log2 FC Securin (PTTG1): compound vs DMSO
Method: HCT116 cells were treated with 1 μM MG132, 2 μM CB-5083 or 4 μM of NMS-874 for 6 h or 24 h, n=2. […] M, C and N represents MG132, CB-5083 and NMS-873, respectively.
As a step toward understanding the differential effects of inhibiting p97 and the proteasome in cancer treatment, the effect of inhibiting p97 was compared to proteasome inhibition using tandem mass tag (TMT) 16-plexed labelling. This technique allowed for capture of alterations in the proteome after exposure to MG132 (proteasome inhibitor) and p97 inhibitors (CB-5083 and NMS-873). […] Samples were pooled together, fractionated into 8 fractions using high pH reverse chromatography, and analyzed using the highly accurate RTS-SPS-MS3 method.

E2F1 [5] = assay: E2F1 levels by qPCR and western blot; conditions: HCT116, 6 h
Method: FIGS. 11A-11B show the effect of p97 inhibitors and MG132 on E2F1 expression in HCT116 cells. […] For both qPCR and western blot assays, HCT116 cells were treated for 6 h with DMSO, 1 μM of MG132 (MG), 2 μM of CB-5083 (CB) or 4 μM of NMS-873 (NMS), n=2, **** indicates p<0.0001, *** indicates p<0.001, * indicates p<0.05 according to unpaired t-test.
To determine if the decreased expression of E2F1 target genes was caused by the downregulation of E2F1 levels due to ER stress, qPCR and western blot were used to evaluate E2F1 levels. […] The transcriptional activity of E2F1 can also be repressed through the formation of a complex with the tumor suppressor protein retinoblastoma (RB1) (FIG. 10B). Hyperphosphorylation of RB1 by cyclin-D-cyclin-dependent kinase 4/6 complex (CCND1-CDK4/6) inactivates RB1 and induces the release of the E2F1 from the complex. The newly released E2F1 leads to transcriptional activation of target genes. […] This downregulation of CCND1 and CDK4 was further confirmed by western blot (FIG. 10D). […] Furthermore, the downregulation of CCND1 occurred after the upregulation of ATF3 (FIG. 10F). ATF3 is a stress-inducible gene, which binds to the cyclin D1 promoter and represses its transcription. Therefore, the upregulation of ATF3 potentially contribute to the downregulation of CCND1.

SMILES: CC(C)C[C@@H](C=O)NC(=O)[C@H](CC(C)C)NC(=O)[C@H](CC(C)C)NC(=O)OCc1ccccc1 [MG132] (Cbz-Leu-Leu-Leu-aldehyde)
- mRNA levels of the E2F1 target gene DHFR (HCT116 cells [1]): reducing the mRNA level of DHFR
- Transcriptional activity of E2F1 (E2F1 [2]): reduce the transcriptional activity of E2F1
- Phosphorylation of RB1 (HCT116 cells [3]; HCT116, 6 h, western blot): reduced phosphorylation of RB1
- Global protein translation (phosphorylation state of 4E-BP1) (HCT116 cells [3]; HCT116, 6 h of treatments): inhibit global protein translation
- p21 (CDKN1A) level (HCT116 cells [3]; HCT116, TMT and western blot): significantly upregulated
- Securin protein degradation from the cytosol and nucleus (Securin): blocked
- TAX1BP1 and p62 protein levels (HCT116 cells [4]; HCT116, 6 h and 24 h): upregulated
- Log2 FC Baculoviral IAP repeat-containing protein 5 (BIRC5) (HCT116 cells [4]; HCT116, 6 h treatment): 0.6
- Log2 FC Cell division cycle protein 20 homolog (CDC20) (HCT116 cells [4]; HCT116, 6 h treatment): 0.8
- Log2 FC F-box only protein 5 (FBXO5) (HCT116 cells [4]; HCT116, 6 h treatment): 0.2
- Log2 FC G1/S-specific cyclin-D1 (CCND1) (HCT116 cells [4]; HCT116, 6 h treatment): 0.2
- Log2 FC Geminin (GMNN) (HCT116 cells [4]; HCT116, 6 h treatment): 0.9
- Log2 FC M-phase inducer phosphatase 2 (CDC25B) (HCT116 cells [4]; HCT116, 6 h treatment): 0.3
- Log2 FC Mitotic checkpoint serine/threonine-protein kinase BUB1 (BUB1) (HCT116 cells [4]; HCT116, 6 h treatment): 1.2
- Log2 FC Myc proto-oncogene protein (MYC) (HCT116 cells [4]; HCT116, 6 h treatment): 1.2
- Log2 FC Origin recognition complex subunit 6 (ORC6) (HCT116 cells [4]; HCT116, 6 h treatment): 0.3
- Log2 FC Ribonucleoside-diphosphate reductase subunit M2 (RRM2) (HCT116 cells [4]; HCT116, 6 h treatment): 0.6
- Log2 FC Securin (PTTG1) (HCT116 cells [4]; HCT116, 6 h treatment): 1.4
- Four XBP1 activated genes/proteins (DNAJB11, SRPR, SRPRB, SYVN1), Log2FC (HCT116 cells [4]; HCT116, 24 h of treatment, p<0.05): not
- Log2 FC Baculoviral IAP repeat-containing protein 5 (BIRC5) (HCT116 cells [4]; HCT116, 24 h treatment): 1.0
- Log2 FC Cell division cycle protein 20 homolog (CDC20) (HCT116 cells [4]; HCT116, 24 h treatment): 1.1
- Log2 FC F-box only protein 5 (FBXO5) (HCT116 cells [4]; HCT116, 24 h treatment): 1.5
- Log2 FC G1/S-specific cyclin-D1 (CCND1) (HCT116 cells [4]; HCT116, 24 h treatment): 0.4
- Log2 FC Geminin (GMNN) (HCT116 cells [4]; HCT116, 24 h treatment): 1.4
- Log2 FC M-phase inducer phosphatase 2 (CDC25B) (HCT116 cells [4]; HCT116, 24 h treatment): −0.2
- Log2 FC Mitotic checkpoint serine/threonine-protein kinase BUB1 (BUB1) (HCT116 cells [4]; HCT116, 24 h treatment): 1.4
- Log2 FC Myc proto-oncogene protein (MYC) (HCT116 cells [4]; HCT116, 24 h treatment): 0.2
- Log2 FC Origin recognition complex subunit 6 (ORC6) (HCT116 cells [4]; HCT116, 24 h treatment): 1.0
- Log2 FC Ribonucleoside-diphosphate reductase subunit M2 (RRM2) (HCT116 cells [4]; HCT116, 24 h treatment): 1.2
- Log2 FC Securin (PTTG1) (HCT116 cells [4]; HCT116, 24 h treatment): −0.1
- CCND1 (cyclin D1) and CDK4/6 protein levels (HCT116 cells [4]; HCT116, proteomic analysis (TMT)): upregulated
- E2F1 RNA levels (E2F1 [5]; qPCR, 1 μM MG132, 2 μM CB-5083, 4 μM NMS-873): strongly downregulated
- Protein level of E2F1 (E2F1 [5]; western blot): increased
